Experimental findings from patent US12239654B2, “Compounds and methods for treating neurological and cardiovascular conditions” (Astrocyte Pharmaceuticals, Inc., priority 2016, dated 2025) are described below.

The term EC50 denotes the midpoint of the concentration-response curve.

A short description of series [1]: Brain binding determination by brain homogenate ultrafiltration, neonatal pig. As to conditions: female, pH 7.4, 37° C., read-out: % Bound Mean (converted). In kind it is in vitro ADME.
Experimental: Animals and Tissue Preparation. Plasma and brain samples from female neonatal pigs were obtained from the University of Pennsylvania and stored at −80° C. until use.
Brains were weighed and homogenized with 1:9 phosphate-buffered saline, pH 7.4 using an Omni tissue homogenizer.
Pooled homogenized brains were pre-warmed for 60 minutes in a humidified, 5% CO2 incubator maintained at 37° C. […] Spiked pooled brain homogenates were placed on a Nutator mixer in a humidified, 5% CO2 incubator at 37° C. for 60 minutes. After 60 minutes, three 800 ul aliquots of each sample were added to Centrifree centrifugal filters. The filters were subjected to centrifugation at 2900 rpm for 10 minutes at 37 C. Aliquots of residual brain homogenate and ultrafiltrate were collected for bioanalysis.
For each tissue matrix, standard curves were created and LLOQ/ULOQ concentrations determined.
In series [2] the target is T1, mouse A3 adenosine receptor (Mus musculus, UniProt Q61618).
T1 construct: expressed in transfected cells; whole cells for cAMP
T1 sequence (Q61618 1-319): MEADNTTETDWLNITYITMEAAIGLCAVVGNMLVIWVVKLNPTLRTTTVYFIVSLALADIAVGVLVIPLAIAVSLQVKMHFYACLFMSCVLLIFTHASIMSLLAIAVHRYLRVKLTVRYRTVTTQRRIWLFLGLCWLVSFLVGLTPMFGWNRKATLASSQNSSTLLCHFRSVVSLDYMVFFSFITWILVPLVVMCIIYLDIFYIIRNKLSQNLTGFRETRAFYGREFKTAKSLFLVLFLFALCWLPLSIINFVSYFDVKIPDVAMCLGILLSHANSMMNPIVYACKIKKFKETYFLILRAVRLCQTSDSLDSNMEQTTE
Briefly: cAMP accumulation at mouse A3 receptors expressed in CHO cells. In kind it is cell-based. On the procedure: Additionally cAMP experiments were conducted at CHO cells recombinantly expressing human A3 or mouse A3 adenosine receptors, respectively.

Series [3] in a line: LC-MS/MS metabolite scouting of MRS2365 in plasma and whole blood. Format: in vitro ADME. As to conditions: EDTA-treated mouse and human whole blood. On the procedure:
Plasma Stability Determination: MRS2365, enalapril and procaine were solubilized in phosphate-buffered saline, pH 7.4. […] Stability incubations were initiated with the addition of MRS2365 (1 μM final concentration). Initial assessments of stability in EDTA-generated plasma utilized incubation timepoints of 0, 10, 30, 60, 120 and 240 minutes (FIGS. 3 and 4). Subsequent studies comparing EDTA- and heparin-generated plasma utilized incubation timepoints of 0, 1, 2.5, 5, 7.5, 10 and 30 minutes (FIG. 7). Additional plasma stability incubations comparing EDTA- and heparin-generated plasma were performed using timepoints of 0, 5, 10, 20, 30, 45, 60 and 90 seconds (FIG. 8). […]
Plasma and blood samples were also qualitatively analyzed for MRS2365 metabolites utilizing a LC-MS/MS-based “metabolite scouting” protocol. […] Blood and plasma samples were analyzed by both positive- and negative-ion LC/MS-MS for parent compound and metabolites as it was anticipated that the phosphorylated compounds would preferentially generate negative ions while the riboside MRS4322 would preferentially generate positive ions. In positive-ion mode, extracted ion chromatograms monitored masses in the range of 323.7-324.7 and 403.7-404.7 to scout for MRS4322 and MRS2347, respectively. Any ion peaks in these ranges were further analyzed to generate product ion spectra for these ion chromatogram peaks. […]

As to `CSc1nc(N)c2ncn([C@H]3[C@H](O)[C@H](O)[C@]4(CO)C[C@H]34)c2n1` [MRS4322], the fraction unbound at 60 min, 1 uM in series [1] was 0.253. For the same molecule, the EC50 in series [2] (CHO cells stably expressing mouse A3R, read-out: EC50 ± SEM, Mouse A3R, cAMP accumulation) was found to be 759 ± 170 nM. For the same molecule, the Emax at 100 µM in series [2] (read-out: efficacy at 100 μM concentration in % relative to maximal effect of NECA, Mouse A3R, 100 μM, cAMP accumulation, CHO cells) stood at 72%.

For `CSc1nc(N)c2ncn([C@H]3[C@H](O)[C@H](O)[C@]4(COP(=O)(O)OP(=O)(O)O)C[C@H]34)c2n1` [MRS2365], the metabolites detected result in series [3] is “No metabolites were detected”.
